{
  "source": "patent US11767310B2",
  "about": "“Nicotinamide RIPK1 inhibitors” (AbbVie Inc., priority 2021, dated 2023)",
  "test_in_all_cases": "Kinase binding screen",
  "conditions_in_all_cases": "read-out: Percent Control at 100 nM Compound Concentration",
  "key": {"[1]": {"target": "PDGFRB (Homo sapiens (Human), UniProt P09619)"}, "[2]": {"target": "BMX (Homo sapiens (Human), UniProt P51813)"}, "[3]": {"target": "PAK3 (Homo sapiens (Human), UniProt O75914)"}, "[4]": {"target": "CDC2L1 (Homo sapiens (Human), UniProt P21127)", "sequence (P21127 whole entry)": "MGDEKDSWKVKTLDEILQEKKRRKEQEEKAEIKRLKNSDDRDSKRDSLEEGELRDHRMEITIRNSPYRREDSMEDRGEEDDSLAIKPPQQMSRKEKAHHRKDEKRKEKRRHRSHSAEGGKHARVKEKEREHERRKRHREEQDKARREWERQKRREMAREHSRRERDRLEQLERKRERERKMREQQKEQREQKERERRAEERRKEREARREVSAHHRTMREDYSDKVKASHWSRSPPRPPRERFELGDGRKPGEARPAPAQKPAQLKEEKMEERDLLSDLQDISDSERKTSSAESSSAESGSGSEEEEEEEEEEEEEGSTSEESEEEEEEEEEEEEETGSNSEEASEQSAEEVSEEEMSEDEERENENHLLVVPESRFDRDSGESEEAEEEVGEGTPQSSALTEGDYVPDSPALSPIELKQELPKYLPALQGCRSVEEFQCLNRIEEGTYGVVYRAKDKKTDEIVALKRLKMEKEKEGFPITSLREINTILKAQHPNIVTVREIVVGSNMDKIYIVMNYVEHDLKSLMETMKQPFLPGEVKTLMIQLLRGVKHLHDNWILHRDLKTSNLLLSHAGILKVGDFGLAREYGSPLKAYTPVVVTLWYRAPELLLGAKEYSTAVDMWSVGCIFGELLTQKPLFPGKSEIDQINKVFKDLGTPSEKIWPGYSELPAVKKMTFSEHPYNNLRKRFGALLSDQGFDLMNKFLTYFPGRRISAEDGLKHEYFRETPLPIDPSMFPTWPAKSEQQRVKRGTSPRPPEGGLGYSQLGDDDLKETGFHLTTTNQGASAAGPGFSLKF"}, "[5]": {"target": "ERK4 (Homo sapiens (Human), UniProt P31152)", "sequence (P31152 whole entry)": "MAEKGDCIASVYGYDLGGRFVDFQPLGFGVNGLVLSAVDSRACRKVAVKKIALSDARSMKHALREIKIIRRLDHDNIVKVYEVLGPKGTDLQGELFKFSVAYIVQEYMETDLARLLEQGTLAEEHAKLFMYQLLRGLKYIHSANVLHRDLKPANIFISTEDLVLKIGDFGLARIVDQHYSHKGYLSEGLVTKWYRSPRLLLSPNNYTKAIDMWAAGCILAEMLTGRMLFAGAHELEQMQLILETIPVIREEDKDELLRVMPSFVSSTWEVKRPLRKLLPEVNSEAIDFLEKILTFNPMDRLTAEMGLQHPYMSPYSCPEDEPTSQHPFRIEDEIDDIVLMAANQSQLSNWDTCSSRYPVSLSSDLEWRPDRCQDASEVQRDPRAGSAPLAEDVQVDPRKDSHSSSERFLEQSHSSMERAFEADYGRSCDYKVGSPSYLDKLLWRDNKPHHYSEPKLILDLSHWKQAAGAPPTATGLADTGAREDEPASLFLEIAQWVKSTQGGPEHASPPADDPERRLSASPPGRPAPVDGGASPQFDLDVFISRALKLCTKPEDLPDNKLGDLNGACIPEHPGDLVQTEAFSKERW"}, "[6]": {"target": "EGFR(L858R) (Homo sapiens (Human), UniProt P00533, L858R)"}, "[7]": {"target": "PIK3CA(Q546K) (Homo sapiens (Human), UniProt P42336, Q546K)"}, "[8]": {"target": "ULK3 (Homo sapiens (Human), UniProt Q6PHR2)"}, "[9]": {"target": "NEK10 (Homo sapiens (Human), UniProt Q6ZWH5)"}, "[10]": {"target": "PRKX (Homo sapiens (Human), UniProt P51817)", "sequence (P51817 whole entry)": "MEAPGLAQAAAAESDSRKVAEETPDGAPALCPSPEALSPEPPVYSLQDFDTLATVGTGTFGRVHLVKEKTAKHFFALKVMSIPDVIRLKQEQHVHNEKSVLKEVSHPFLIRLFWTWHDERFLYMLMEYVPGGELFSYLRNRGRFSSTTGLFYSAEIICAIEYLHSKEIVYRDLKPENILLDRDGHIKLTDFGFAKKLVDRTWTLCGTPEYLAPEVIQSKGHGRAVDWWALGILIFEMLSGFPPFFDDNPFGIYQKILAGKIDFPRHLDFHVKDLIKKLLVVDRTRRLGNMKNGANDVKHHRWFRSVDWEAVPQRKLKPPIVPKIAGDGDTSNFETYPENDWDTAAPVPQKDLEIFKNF"}, "[11]": {"target": "MET(M1250T) (Homo sapiens (Human), UniProt P08581, M1250T)", "sequence (P08581 25-1390 M1250T)": "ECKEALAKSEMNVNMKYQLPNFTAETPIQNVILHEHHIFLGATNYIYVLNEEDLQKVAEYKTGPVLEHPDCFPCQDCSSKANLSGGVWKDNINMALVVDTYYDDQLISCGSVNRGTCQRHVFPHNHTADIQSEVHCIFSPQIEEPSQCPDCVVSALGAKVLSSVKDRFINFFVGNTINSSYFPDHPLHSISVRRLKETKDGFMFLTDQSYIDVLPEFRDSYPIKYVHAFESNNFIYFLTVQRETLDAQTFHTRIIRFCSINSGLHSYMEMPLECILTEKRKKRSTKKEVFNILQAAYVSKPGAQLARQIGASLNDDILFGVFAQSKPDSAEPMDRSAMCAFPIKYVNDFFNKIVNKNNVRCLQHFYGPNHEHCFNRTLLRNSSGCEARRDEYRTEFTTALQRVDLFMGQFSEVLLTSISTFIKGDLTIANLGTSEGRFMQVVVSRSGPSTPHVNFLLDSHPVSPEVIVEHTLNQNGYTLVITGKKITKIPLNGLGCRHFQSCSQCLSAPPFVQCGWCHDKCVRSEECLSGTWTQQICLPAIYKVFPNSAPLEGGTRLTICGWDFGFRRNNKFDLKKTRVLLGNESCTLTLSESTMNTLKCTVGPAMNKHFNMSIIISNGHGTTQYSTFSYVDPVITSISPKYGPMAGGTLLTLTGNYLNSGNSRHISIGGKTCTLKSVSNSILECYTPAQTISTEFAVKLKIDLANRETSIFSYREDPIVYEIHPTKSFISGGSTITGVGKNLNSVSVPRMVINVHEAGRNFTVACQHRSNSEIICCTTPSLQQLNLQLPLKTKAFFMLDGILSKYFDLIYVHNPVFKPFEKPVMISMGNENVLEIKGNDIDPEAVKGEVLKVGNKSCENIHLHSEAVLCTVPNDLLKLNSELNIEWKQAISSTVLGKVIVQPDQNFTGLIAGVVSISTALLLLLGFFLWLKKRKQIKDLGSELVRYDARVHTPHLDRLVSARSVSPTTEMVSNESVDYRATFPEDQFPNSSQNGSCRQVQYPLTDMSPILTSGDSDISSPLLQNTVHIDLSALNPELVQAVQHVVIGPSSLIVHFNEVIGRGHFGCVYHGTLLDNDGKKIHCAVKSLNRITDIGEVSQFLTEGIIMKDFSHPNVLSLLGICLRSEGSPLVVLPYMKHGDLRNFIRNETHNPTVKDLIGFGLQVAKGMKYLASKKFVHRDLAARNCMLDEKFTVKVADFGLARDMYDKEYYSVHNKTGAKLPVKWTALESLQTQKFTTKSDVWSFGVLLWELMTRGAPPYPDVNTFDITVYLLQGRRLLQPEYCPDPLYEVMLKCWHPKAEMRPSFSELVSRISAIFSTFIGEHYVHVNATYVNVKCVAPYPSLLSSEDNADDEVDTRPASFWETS"}, "[12]": {"target": "CSNK1E (Homo sapiens (Human), UniProt P49674)"}, "[13]": {"target": "PKAC-beta (Homo sapiens (Human), UniProt P22694)"}, "[14]": {"target": "BRAF (Homo sapiens (Human), UniProt P15056)"}, "[15]": {"target": "GCN2(Kin.Dom.2,S808G) (Homo sapiens (Human), UniProt Q9P2K8, S808G)"}, "[16]": {"target": "BMPR2 (Homo sapiens (Human), UniProt Q13873)"}, "[17]": {"target": "TNK2 (Homo sapiens (Human), UniProt Q07912)"}, "[18]": {"target": "SgK110 (Homo sapiens (Human), UniProt P0C264)", "sequence (P0C264 whole entry)": "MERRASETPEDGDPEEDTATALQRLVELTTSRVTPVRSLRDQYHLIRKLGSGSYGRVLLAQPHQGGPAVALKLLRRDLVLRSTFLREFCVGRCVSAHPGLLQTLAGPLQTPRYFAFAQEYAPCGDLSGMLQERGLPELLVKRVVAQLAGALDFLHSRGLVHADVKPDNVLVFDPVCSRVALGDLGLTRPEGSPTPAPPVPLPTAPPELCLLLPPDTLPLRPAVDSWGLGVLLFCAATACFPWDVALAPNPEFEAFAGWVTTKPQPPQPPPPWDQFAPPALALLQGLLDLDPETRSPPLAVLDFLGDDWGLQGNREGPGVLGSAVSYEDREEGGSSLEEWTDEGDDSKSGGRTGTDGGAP"}, "[19]": {"target": "MAPKAPK5 (Homo sapiens (Human), UniProt Q8IW41)", "sequence (Q8IW41 whole entry)": "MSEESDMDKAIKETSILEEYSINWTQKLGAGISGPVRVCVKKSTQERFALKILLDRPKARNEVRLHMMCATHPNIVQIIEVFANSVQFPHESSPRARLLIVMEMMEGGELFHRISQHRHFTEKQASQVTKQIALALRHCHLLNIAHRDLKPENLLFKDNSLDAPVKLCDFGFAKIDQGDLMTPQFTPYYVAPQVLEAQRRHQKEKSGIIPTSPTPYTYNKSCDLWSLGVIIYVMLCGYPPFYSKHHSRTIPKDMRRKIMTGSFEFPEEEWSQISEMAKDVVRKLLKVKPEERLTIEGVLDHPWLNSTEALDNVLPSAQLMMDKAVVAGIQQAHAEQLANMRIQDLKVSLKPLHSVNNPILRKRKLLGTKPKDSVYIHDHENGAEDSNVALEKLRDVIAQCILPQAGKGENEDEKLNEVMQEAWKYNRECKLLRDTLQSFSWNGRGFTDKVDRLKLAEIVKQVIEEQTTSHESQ"}, "[20]": {"target": "KIT(V559D,V654A) (Homo sapiens (Human), UniProt P10721, V559D/V654A)"}, "[21]": {"target": "PRKCQ (Homo sapiens (Human), UniProt Q04759)", "sequence (Q04759 whole entry)": "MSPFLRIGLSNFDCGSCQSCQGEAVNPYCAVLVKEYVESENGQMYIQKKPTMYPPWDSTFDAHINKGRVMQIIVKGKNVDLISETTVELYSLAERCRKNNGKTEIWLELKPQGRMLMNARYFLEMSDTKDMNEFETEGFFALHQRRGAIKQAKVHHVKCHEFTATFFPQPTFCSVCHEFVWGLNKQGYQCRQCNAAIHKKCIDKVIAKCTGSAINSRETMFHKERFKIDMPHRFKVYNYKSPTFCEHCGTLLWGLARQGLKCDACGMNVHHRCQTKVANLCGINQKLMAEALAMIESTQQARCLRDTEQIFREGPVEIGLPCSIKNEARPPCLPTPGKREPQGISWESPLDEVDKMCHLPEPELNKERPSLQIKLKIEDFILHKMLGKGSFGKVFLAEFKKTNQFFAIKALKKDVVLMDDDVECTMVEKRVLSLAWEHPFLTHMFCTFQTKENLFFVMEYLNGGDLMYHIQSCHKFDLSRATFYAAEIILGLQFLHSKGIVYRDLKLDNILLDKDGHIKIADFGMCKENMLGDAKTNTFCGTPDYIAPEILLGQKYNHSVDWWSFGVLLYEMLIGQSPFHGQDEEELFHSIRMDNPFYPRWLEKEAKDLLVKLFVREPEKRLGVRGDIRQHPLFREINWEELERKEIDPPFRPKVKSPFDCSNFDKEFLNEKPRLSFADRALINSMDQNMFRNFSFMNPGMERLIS"}, "[22]": {"target": "BUB1 (Homo sapiens (Human), UniProt O43683)"}, "[23]": {"target": "DRAK1 (Homo sapiens (Human), UniProt Q9UEE5)"}, "[24]": {"target": "PHKG2 (Homo sapiens (Human), UniProt P15735)", "sequence (P15735 whole entry)": "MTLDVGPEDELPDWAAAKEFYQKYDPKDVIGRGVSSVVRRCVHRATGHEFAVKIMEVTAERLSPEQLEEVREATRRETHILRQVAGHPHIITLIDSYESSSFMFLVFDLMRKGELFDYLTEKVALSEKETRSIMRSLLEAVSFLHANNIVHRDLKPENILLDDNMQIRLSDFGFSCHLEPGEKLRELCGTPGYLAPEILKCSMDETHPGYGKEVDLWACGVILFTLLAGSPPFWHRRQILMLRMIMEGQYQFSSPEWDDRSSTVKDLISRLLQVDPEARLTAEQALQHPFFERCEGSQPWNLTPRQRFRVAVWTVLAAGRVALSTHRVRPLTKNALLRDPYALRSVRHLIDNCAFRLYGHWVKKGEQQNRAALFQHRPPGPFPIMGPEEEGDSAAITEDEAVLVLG"}, "[25]": {"target": "KIT(L576P) (Homo sapiens (Human), UniProt P10721, L576P)"}, "[26]": {"target": "CDC2L2 (Homo sapiens (Human), UniProt Q9UQ88)"}, "[27]": {"target": "ERK5 (Homo sapiens (Human), UniProt Q13164)"}, "[28]": {"target": "PIM3 (Homo sapiens (Human), UniProt Q86V86)"}},
  "note": "Where two headings read alike, the source gives them in different places.",
  "data": [
    {"smiles": "CN(C[C@@H](O)Cc1ccccc1)C(=O)c1cncc(C#Cc2cnn(C(F)F)c2)c1", "note": "[Example 2, (S)-5-((1-(difluoromethyl)-1H-pyrazol-4-yl)ethynyl)-N-(2-hydroxy-3-phenylpropyl)-N-methylnicotinamide]", "values": [
      {"measurement": "remaining activity at 0.1 µM", "setting": "[1]; PDGFRB", "result": 100, "unit": "%"},
      {"measurement": "remaining activity at 0.1 µM", "setting": "[2]; BMX", "result": 100, "unit": "%"},
      {"measurement": "remaining activity at 0.1 µM", "setting": "[3]; PAK3", "result": 71, "unit": "%"},
      {"measurement": "remaining activity at 0.1 µM", "setting": "[4]; CDC2L1", "result": 100, "unit": "%"},
      {"measurement": "remaining activity at 0.1 µM", "setting": "[5]; ERK4", "result": 100, "unit": "%"},
      {"measurement": "remaining activity at 0.1 µM", "setting": "[6]; EGFR(L858R)", "result": 100, "unit": "%"},
      {"measurement": "remaining activity at 0.1 µM", "setting": "[7]; PIK3CA(Q546K)", "result": 96, "unit": "%"},
      {"measurement": "remaining activity at 0.1 µM", "setting": "[8]; ULK3", "result": 97, "unit": "%"},
      {"measurement": "remaining activity at 0.1 µM", "setting": "[9]; NEK10", "result": 91, "unit": "%"},
      {"measurement": "remaining activity at 0.1 µM", "setting": "[10]; PRKX", "result": 100, "unit": "%"},
      {"measurement": "remaining activity at 0.1 µM", "setting": "[11]; MET(M1250T)", "result": 100, "unit": "%"},
      {"measurement": "remaining activity at 0.1 µM", "setting": "[12]; CSNK1E", "result": 67, "unit": "%"},
      {"measurement": "remaining activity at 0.1 µM", "setting": "[13]; PKAC-beta", "result": 92, "unit": "%"},
      {"measurement": "remaining activity at 0.1 µM", "setting": "[14]; BRAF", "result": 100, "unit": "%"},
      {"measurement": "remaining activity at 0.1 µM", "setting": "[15]; GCN2(Kin.Dom.2,S808G)", "result": 95, "unit": "%"},
      {"measurement": "remaining activity at 0.1 µM", "setting": "[16]; BMPR2", "result": 100, "unit": "%"},
      {"measurement": "remaining activity at 0.1 µM", "setting": "[17]; TNK2", "result": 100, "unit": "%"},
      {"measurement": "remaining activity at 0.1 µM", "setting": "[18]; SgK110", "result": 81, "unit": "%"},
      {"measurement": "remaining activity at 0.1 µM", "setting": "[19]; MAPKAPK5", "result": 94, "unit": "%"},
      {"measurement": "remaining activity at 0.1 µM", "setting": "[20]; KIT(V559D,V654A)", "result": 94, "unit": "%"},
      {"measurement": "remaining activity at 0.1 µM", "setting": "[21]; PRKCQ", "result": 94, "unit": "%"},
      {"measurement": "remaining activity at 0.1 µM", "setting": "[22]; BUB1", "result": 93, "unit": "%"},
      {"measurement": "remaining activity at 0.1 µM", "setting": "[23]; DRAK1", "result": 95, "unit": "%"},
      {"measurement": "remaining activity at 0.1 µM", "setting": "[24]; PHKG2", "result": 100, "unit": "%"},
      {"measurement": "remaining activity at 0.1 µM", "setting": "[25]; KIT(L576P)", "result": 100, "unit": "%"},
      {"measurement": "remaining activity at 0.1 µM", "setting": "[26]; CDC2L2", "result": 100, "unit": "%"},
      {"measurement": "remaining activity at 0.1 µM", "setting": "[27]; ERK5", "result": 100, "unit": "%"},
      {"measurement": "remaining activity at 0.1 µM", "setting": "[28]; PIM3", "result": 100, "unit": "%"}
    ]},
    {"smiles": "CN(C[C@H](Cc1ccccc1)OP(=O)(O)O)C(=O)c1cncc(C#Cc2cnn(C(F)F)c2)c1", "note": "[Example 19, (S)-1-(5-((1-(difluoromethyl)-1H-pyrazol-4-yl)ethynyl)-N-methylnicotinamido)-3-phenylpropan-2-yl dihydrogen phosphate]", "values": [
      {"measurement": "remaining activity at 0.1 µM", "setting": "[1]", "result": 100, "unit": "%"},
      {"measurement": "remaining activity at 0.1 µM", "setting": "[2]", "result": 100, "unit": "%"},
      {"measurement": "remaining activity at 0.1 µM", "setting": "[3]", "result": 100, "unit": "%"},
      {"measurement": "remaining activity at 0.1 µM", "setting": "[4]", "result": 100, "unit": "%"},
      {"measurement": "remaining activity at 0.1 µM", "setting": "[5]", "result": 100, "unit": "%"},
      {"measurement": "remaining activity at 0.1 µM", "setting": "[6]", "result": 94, "unit": "%"},
      {"measurement": "remaining activity at 0.1 µM", "setting": "[7]", "result": 88, "unit": "%"},
      {"measurement": "remaining activity at 0.1 µM", "setting": "[8]", "result": 96, "unit": "%"},
      {"measurement": "remaining activity at 0.1 µM", "setting": "[9]", "result": 100, "unit": "%"},
      {"measurement": "remaining activity at 0.1 µM", "setting": "[10]", "result": 100, "unit": "%"},
      {"measurement": "remaining activity at 0.1 µM", "setting": "[11]", "result": 100, "unit": "%"},
      {"measurement": "remaining activity at 0.1 µM", "setting": "[12]", "result": 74, "unit": "%"},
      {"measurement": "remaining activity at 0.1 µM", "setting": "[13]", "result": 100, "unit": "%"},
      {"measurement": "remaining activity at 0.1 µM", "setting": "[14]", "result": 100, "unit": "%"},
      {"measurement": "remaining activity at 0.1 µM", "setting": "[15]", "result": 97, "unit": "%"},
      {"measurement": "remaining activity at 0.1 µM", "setting": "[16]", "result": 89, "unit": "%"},
      {"measurement": "remaining activity at 0.1 µM", "setting": "[17]", "result": 100, "unit": "%"},
      {"measurement": "remaining activity at 0.1 µM", "setting": "[18]", "result": 77, "unit": "%"},
      {"measurement": "remaining activity at 0.1 µM", "setting": "[19]", "result": 96, "unit": "%"},
      {"measurement": "remaining activity at 0.1 µM", "setting": "[20]", "result": 100, "unit": "%"},
      {"measurement": "remaining activity at 0.1 µM", "setting": "[21]", "result": 98, "unit": "%"},
      {"measurement": "remaining activity at 0.1 µM", "setting": "[22]", "result": 85, "unit": "%"},
      {"measurement": "remaining activity at 0.1 µM", "setting": "[23]", "result": 100, "unit": "%"},
      {"measurement": "remaining activity at 0.1 µM", "setting": "[24]", "result": 100, "unit": "%"},
      {"measurement": "remaining activity at 0.1 µM", "setting": "[25]", "result": 98, "unit": "%"},
      {"measurement": "remaining activity at 0.1 µM", "setting": "[26]", "result": 100, "unit": "%"},
      {"measurement": "remaining activity at 0.1 µM", "setting": "[27]", "result": 100, "unit": "%"},
      {"measurement": "remaining activity at 0.1 µM", "setting": "[28]", "result": 100, "unit": "%"}
    ]}
  ]
}
